This is an account of results in ChEMBL document CHEMBL4373747 (ACS Med Chem Lett, 2020).

The nature of series [1]: Intrinsic clearance in ICR/CD1 mouse hepatocytes at 1 uM measured upto 120 mins by LCMS analysis. The following applies: 2 h. Type of series: ADME, cell-based, Hepatocyte.
A further series deals with Histone deacetylase 1 (Homo sapiens, UniProt Q13547). Put plainly: Inhibition of recombinant full length human HDAC1 expressed in baculovirus infected Sf9 cells using FAM-RHKK-Ac as substrate incubated for 17 hrs by electrophoretic mobility shift assay. On the technique in general: A gel shift assay detects complexes by their altered migration in electrophoresis.
Series [2] concerns MV4-11. As to the kind of experiment: Induction of apoptosis in human MV4-11 cells assessed as viable cells at 2 uM incubated for 18 hrs by annexin V FITC and PI based flow cytometry (reference value: 53.01 to 53.07 %). As to conditions: Homo sapiens, MV4-11, 18 h; read-out: Activity. Type of series: functional. (Flow cytometry measures light scatter and fluorescence of single cells or particles in a stream.)

A short description of series [3]: Cytotoxicity against human MRC9 cells assessed as reduction in cell viability incubated for 72 hrs by cell-titer blue assay. The following applies: MRC9, 72 h. Type of series: cell-based.
Series [4] deals with MV4-11. Put plainly: Induction of apoptosis in human MV4-11 cells assessed as early apoptotic cells at 2 uM incubated for 18 hrs by annexin V FITC and PI based flow cytometry (reference value: 19.46 to 22.17 %). Type of series: functional.
For series [5], the system named is MV4-11. As to the kind of experiment: Induction of apoptosis in human MV4-11 cells assessed as late apoptotic cells incubated for 18 hrs by annexin V FITC and PI based flow cytometry. Type of series: functional, cell-based.
Another series has as its target Histone deacetylase 9 (Homo sapiens, UniProt Q9UKV0). As to the kind of experiment: Inhibition of recombinant human HDAC9 (604-1066 residues) expressed in baculovirus infected Sf9 cells using FAM-RHKK-TFAc as substrate incubated for 3 hrs by electrophoretic mobility shift assay.
In series [6] the target is T1, Protein deacetylase HDAC6 (Homo sapiens, UniProt Q9UBN7).
T1 sequence (Q9UBN7 whole entry): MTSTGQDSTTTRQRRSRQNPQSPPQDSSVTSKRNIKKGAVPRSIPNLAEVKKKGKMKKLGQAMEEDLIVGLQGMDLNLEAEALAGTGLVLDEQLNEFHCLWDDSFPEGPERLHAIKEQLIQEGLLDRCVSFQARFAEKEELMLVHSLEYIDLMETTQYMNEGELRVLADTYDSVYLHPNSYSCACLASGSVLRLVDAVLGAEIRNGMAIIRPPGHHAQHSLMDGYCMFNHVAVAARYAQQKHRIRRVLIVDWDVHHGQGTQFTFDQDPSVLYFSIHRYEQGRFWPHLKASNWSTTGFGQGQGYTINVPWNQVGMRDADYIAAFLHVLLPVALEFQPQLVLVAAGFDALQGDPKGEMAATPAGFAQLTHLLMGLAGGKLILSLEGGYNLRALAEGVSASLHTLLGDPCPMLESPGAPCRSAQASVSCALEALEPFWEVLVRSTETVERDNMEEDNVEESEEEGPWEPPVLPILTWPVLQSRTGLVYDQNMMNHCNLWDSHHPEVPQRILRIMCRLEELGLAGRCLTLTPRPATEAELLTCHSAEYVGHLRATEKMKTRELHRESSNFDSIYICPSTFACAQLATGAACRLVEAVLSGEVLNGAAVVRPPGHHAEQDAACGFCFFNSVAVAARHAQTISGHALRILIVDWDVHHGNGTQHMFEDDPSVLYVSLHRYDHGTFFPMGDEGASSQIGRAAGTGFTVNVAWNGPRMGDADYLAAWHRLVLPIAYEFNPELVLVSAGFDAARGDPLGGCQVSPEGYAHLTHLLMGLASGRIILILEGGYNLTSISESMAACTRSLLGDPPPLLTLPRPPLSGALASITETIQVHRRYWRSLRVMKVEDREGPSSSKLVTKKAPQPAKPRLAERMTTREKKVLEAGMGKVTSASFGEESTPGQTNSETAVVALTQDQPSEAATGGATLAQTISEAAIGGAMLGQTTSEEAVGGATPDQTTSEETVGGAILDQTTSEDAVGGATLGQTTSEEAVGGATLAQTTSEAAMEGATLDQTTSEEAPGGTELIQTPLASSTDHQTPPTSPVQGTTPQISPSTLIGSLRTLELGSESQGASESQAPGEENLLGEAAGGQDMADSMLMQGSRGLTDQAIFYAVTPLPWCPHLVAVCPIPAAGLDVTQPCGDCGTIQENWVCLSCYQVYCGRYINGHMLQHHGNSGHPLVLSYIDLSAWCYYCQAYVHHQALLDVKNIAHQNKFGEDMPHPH
Put plainly: (§1) Inhibition of HDAC6 in human HeLa cells incubated for 15 mins by ELISA. Type of series: cell-based. (In general: An ELISA detects its analyte on a solid surface through an enzyme-linked reagent.)

Series [7] concerns the target T2, Protein deacetylase HDAC6 (Homo sapiens) (UniProt Q9UBN7).
T2 sequence (whole entry): T1 sequence (Q9UBN7 whole entry)
The description is as §1. Type of series: cell-based.

The target of another series is Histone deacetylase 5 (Homo sapiens, UniProt Q9UQL6). As to the kind of experiment: Inhibition of recombinant full length human HDAC5 expressed in baculovirus infected Sf9 cells using FAM-RHKK-TFAc as substrate incubated for 3 hrs by electrophoretic mobility shift assay.
The subject of the next series is HeLa. As to the kind of experiment: Cytotoxicity against human HeLa cells assessed as reduction in cell viability incubated for 72 hrs by cell-titer blue assay. Type of series: functional, cell-based.
In series [8] the test system is MV4-11. As to the kind of experiment: Induction of apoptosis in human MV4-11 cells assessed as late apoptotic cells at 2 uM incubated for 18 hrs by annexin V FITC and PI based flow cytometry (reference value: 9.2 to 9.63 %). Type of series: functional.
For the next series, the system named is MOLM-13. As to the kind of experiment: Cytotoxicity against human MOLM13 cells assessed as reduction in cell viability incubated for 72 hrs by cell-titer blue assay. Type of series: functional, cell-based. The following applies: MOLM-13, 72 h.
Series [9] deals with MV4-11. As to the kind of experiment: Induction of apoptosis in human MV4-11 cells assessed as viable cells at 1 uM incubated for 18 hrs by annexin V FITC and PI based flow cytometry (reference value: 53.01 to 53.07 %). Type of series: functional. As to conditions: Homo sapiens, MV4-11, 18 h; read-out: Activity.

Chain of Histone deacetylase 1 (Q13547 whole entry): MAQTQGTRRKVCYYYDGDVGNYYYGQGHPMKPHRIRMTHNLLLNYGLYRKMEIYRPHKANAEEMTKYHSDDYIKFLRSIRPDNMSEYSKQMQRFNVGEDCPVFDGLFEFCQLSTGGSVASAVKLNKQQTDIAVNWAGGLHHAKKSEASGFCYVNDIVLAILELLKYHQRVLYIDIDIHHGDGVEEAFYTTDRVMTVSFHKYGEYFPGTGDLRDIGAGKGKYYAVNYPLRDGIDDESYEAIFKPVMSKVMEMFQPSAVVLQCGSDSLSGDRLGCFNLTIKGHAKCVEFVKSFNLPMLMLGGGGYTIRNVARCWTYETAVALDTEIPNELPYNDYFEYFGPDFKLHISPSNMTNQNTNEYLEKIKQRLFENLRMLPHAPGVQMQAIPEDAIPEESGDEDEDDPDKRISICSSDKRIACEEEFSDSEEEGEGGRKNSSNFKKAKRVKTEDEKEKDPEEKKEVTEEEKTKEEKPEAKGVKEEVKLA
Chain of Histone deacetylase 9 (Q9UKV0 whole entry, the tested form may be a part): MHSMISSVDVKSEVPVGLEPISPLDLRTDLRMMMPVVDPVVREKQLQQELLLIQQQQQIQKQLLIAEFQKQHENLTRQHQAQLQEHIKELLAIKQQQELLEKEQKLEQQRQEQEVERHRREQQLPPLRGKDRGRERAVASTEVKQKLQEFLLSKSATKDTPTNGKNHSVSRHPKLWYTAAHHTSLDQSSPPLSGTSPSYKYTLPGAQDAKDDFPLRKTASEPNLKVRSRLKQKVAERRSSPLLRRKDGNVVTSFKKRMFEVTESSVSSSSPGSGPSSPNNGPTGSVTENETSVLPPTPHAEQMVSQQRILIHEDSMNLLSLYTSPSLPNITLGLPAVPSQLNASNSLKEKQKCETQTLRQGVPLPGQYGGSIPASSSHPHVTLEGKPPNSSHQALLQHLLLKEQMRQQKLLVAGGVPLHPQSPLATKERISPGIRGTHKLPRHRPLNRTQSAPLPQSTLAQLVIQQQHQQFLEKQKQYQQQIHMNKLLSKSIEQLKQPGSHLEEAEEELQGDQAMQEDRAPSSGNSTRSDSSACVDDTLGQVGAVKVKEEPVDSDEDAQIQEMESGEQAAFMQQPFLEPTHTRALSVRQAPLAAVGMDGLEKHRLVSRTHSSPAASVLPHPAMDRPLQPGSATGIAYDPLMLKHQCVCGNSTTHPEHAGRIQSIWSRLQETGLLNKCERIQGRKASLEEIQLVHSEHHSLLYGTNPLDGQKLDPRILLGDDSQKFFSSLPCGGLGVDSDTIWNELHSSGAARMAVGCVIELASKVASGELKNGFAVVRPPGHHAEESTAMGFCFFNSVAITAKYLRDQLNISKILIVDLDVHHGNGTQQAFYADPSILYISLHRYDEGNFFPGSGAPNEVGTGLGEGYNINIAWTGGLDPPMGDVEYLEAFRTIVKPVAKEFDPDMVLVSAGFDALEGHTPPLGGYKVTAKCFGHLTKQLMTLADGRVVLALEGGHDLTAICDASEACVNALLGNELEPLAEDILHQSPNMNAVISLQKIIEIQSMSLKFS
Chain of Histone deacetylase 5 (Q9UQL6 whole entry): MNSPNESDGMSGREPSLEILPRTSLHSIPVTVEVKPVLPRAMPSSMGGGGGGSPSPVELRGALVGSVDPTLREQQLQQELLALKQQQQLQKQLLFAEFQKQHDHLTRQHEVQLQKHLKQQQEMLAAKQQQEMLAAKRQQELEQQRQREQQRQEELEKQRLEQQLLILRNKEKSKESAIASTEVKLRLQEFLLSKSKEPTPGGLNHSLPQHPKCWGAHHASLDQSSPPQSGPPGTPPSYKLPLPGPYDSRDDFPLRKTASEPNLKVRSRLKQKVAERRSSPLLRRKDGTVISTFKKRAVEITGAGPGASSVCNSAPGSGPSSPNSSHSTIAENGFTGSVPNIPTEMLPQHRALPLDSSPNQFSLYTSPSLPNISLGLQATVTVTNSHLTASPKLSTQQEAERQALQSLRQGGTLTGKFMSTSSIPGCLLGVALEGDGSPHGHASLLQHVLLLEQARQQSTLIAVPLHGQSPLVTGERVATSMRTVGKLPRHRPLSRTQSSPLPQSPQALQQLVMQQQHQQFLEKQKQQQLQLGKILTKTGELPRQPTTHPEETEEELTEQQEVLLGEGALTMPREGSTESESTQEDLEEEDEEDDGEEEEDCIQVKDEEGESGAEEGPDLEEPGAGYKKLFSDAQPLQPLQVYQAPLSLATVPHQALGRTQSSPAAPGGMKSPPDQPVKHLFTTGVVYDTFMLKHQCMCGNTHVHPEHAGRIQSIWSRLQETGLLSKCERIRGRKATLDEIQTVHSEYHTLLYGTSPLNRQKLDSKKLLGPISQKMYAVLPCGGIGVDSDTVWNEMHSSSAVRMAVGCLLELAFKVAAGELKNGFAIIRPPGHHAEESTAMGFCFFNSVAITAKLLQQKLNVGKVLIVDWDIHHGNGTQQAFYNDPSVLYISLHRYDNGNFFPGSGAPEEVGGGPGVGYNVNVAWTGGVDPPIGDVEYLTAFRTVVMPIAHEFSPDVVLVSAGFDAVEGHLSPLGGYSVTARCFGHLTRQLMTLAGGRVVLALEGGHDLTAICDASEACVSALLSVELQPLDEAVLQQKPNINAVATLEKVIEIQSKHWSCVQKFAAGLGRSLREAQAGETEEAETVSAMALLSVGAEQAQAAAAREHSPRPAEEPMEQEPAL

Consider `CC(C)(C)c1ccc(C(=O)Nc2ccc(C(=O)NO)cc2)cc1`, for which, in series [1], the CLH amounted to 49.1 µL/min. Further, the IC50 on Histone deacetylase 1 was 605 nM; in [3], 33.2 µM; at Histone deacetylase 9, over 1000 nM; in [6], 580 nM; at Histone deacetylase 5, over 1000 nM; with HeLa, 2530 nM. The half-inhibitory concentration (IC50) in the series on MOLM-13 turned out to be 6 µM. The viability at 2 µM with MV4-11 [2] was 22.1%. For the same molecule, the Activity in the series on MV4-11 [4] was 27.83%; in the series on MV4-11 [5], “Dose-dependent effect”; in the series on MV4-11 [8], 30.97%. Also, in [7], the inhibition entry is “Dose-dependent effect”. Also, the viability at 1 µM with MV4-11 [9] worked out at 40.9%.

The IC50 is the midpoint of a concentration-inhibition curve.
